Source: publication PMC12396409, “Screening and hit evaluation of a microbial metabolite library against the pathogenic Plasmodium falciparum and Toxoplasma gondii parasites” (International Journal for Parasitology: Drugs and Drug …, 2025)
Like-named read-outs stand apart in the source and are kept apart here.

Columns and labels:
[1] = tested on: T. gondii RH strain (RH-Tub-eYFP) tachyzoites; assay: microbe, parasite or virus in culture; type: cell-based, Toxoplasma gondii; details: 72 h, 72 h; for percent parasite growth at 2 µg/mL: Toxoplasma gondii
[2] = tested on: P. falciparum 3D7 parasites; assay: P. falciparum growth inhibition assay, 2-cycle (120 h treatment), delayed-death screen and dose-response; type: cell-based, Plasmodium falciparum; details: for activity at 2 µg/mL: Plasmodium falciparum
[3] = tested on: P. falciparum 3D7 parasites; assay: P. falciparum growth inhibition assay, 1-cycle (72 h treatment), SYBR DNA staining (library screen at 2 μg/mL and dose-response); type: cell-based, Plasmodium falciparum; details: 72 h; for activity at 2 µg/mL: Plasmodium falciparum
[4] = library screen at 2 μg/mL, % growth, replicate 1, read-out: Tg_72h_%Growth_Rep1
[5] = library screen at 2 μg/mL, % growth, replicate 2, read-out: Tg_72h_%Growth_Rep2
[6] = 3D7, 120 h, library screen at 2 μg/mL, 120 h, % growth, replicate 1, read-out: Pf_120h_%Growth_Rep1
[7] = 3D7, 120 h, library screen at 2 μg/mL, 120 h, % growth, replicate 2, read-out: Pf_120h_%Growth_Rep2
[8] = 3D7, 72 h, library screen at 2 μg/mL, % growth, replicate 1, read-out: Pf_72h_%Growth_Rep1
[9] = 3D7, 72 h, library screen at 2 μg/mL, % growth, replicate 2, read-out: Pf_72h_%Growth_Rep2
[10] = T. gondii, screen at 2 μg/mL, replicate 1
[11] = T. gondii, screen at 2 μg/mL, replicate 2
[12] = P. falciparum, 120 h, screen at 2 μg/mL, replicate 1
[13] = P. falciparum, 120 h, screen at 2 μg/mL, replicate 2
[14] = P. falciparum, screen at 2 μg/mL, replicate 1
[15] = P. falciparum, screen at 2 μg/mL, replicate 2

Work on `COC[C@@H](C[C@H]1O[C@@](O)([C@H](O)[C@@H]2C[C@H](OC)[C@@H](O)CC/C=C(C)/C=C/[C@@H](O[C@@H]3O[C@@H](C)[C@H](OC)[C@@H](O)[C@@H]3O)[C@H](C)/C=C(C)/C=C(C)/C=C(\C)C(=O)O2)[C@H](C)[C@@H](O)[C@H]1C)OC1C[C@](C)(O)[C@@H](O[C@H]2C[C@@H](OC)[C@H](O)[C@@H](C)O2)[C@H](C)O1` (stereo partly drawn) [Apoptolidin] yielded a percent parasite growth at 2 µg/mL [1, 4] of 76.4%, a percent parasite growth at 2 µg/mL [1, 5] of 73% and an activity at 2 µg/mL [2, 6] of 34.5%. It also gave an activity at 2 µg/mL [2, 7] of 23.8%, an activity at 2 µg/mL [3, 8] of 59% and an activity at 2 µg/mL [3, 9] of 49.8%.

With `O=C1N[C@@H](C[C@@]2(O)c3ccccc3N3C(=O)C[C@@H](c4ccccc4)N[C@H]32)C(=O)N[C@H]1Cc1ccccc1` [Citreoindole] the Tg_72h_%Growth_Rep1 [1, 10] was 97.80%, the Tg_72h_%Growth_Rep2 [1, 11] was 86.03% and the “2) Growth (%) at 120 h” value ([2]; P. falciparum, 2 μg/mL, 120 h) was 9.52%. For the same molecule, the Pf_120h_%Growth_Rep1 [2, 12] was 10.68%, the Pf_120h_%Growth_Rep2 [2, 13] was 8.36% and the “3) Fold change (72 h/120 h)” value ([2]; P. falciparum, growth at 72 h / growth at 120 h, 2 μg/mL) was 2.9. For the same molecule, the “1) Growth (%) at 72 h” value ([3]; P. falciparum, 2 μg/mL) was 27.30%, the Pf_72h_%Growth_Rep1 [3, 14] was 25.03% and the Pf_72h_%Growth_Rep2 [3, 15] was 29.57%.

Work on `COc1cc(C)c2c(c1C=O)Oc1c(c(C)c(O)c3c1C(O)OC3=O)OC2=O` (stereo not drawn) [Stictic acid] yielded a percent parasite growth at 2 µg/mL ([1]; T. gondii, parasite screen 2 μg/mL, % growth, replicate 1, read-out: Tg_72h_%Growth_Rep1) of 115%, a percent parasite growth at 2 µg/mL ([1]; T. gondii, parasite screen 2 μg/mL, % growth, replicate 2, read-out: Tg_72h_%Growth_Rep2) of 87% and an activity at 2 µg/mL ([2]; 3D7, P. falciparum, 120 h, parasite screen 2 μg/mL, % growth, replicate 1, read-out: Pf_120h_%Growth_Rep1) of 88.2%. It also gave an activity at 2 µg/mL ([2]; 3D7, P. falciparum, 120 h, parasite screen 2 μg/mL, % growth, replicate 2, read-out: Pf_120h_%Growth_Rep2) of 87.2%, an activity at 2 µg/mL ([3]; 3D7, P. falciparum, parasite screen 2 μg/mL, % growth, replicate 1, read-out: Pf_72h_%Growth_Rep1) of 81.8% and an activity at 2 µg/mL ([3]; 3D7, P. falciparum, parasite screen 2 μg/mL, % growth, replicate 2, read-out: Pf_72h_%Growth_Rep2) of 80.1%.

Molecule `C[C@H]1CCCC(=O)CCC/C=C/c2cc(O)cc(O)c2C(=O)O1` [Zearalenone] has a percent parasite growth at 2 µg/mL ([1]; T. gondii, screen at 2 μg/mL, replicate 1, read-out: Tg_72h_%Growth_Rep1) of 104%, a percent parasite growth at 2 µg/mL ([1]; T. gondii, screen at 2 μg/mL, replicate 2, read-out: Tg_72h_%Growth_Rep2) of 74% and an activity at 2 µg/mL ([2]; 3D7, P. falciparum, 120 h, screen at 2 μg/mL, replicate 1, read-out: Pf_120h_%Growth_Rep1) of 88.9%. It also gave an activity at 2 µg/mL ([2]; 3D7, P. falciparum, 120 h, screen at 2 μg/mL, replicate 2, read-out: Pf_120h_%Growth_Rep2) of 64.3%, an activity at 2 µg/mL ([3]; 3D7, P. falciparum, screen at 2 μg/mL, replicate 1, read-out: Pf_72h_%Growth_Rep1) of 89.4% and an activity at 2 µg/mL ([3]; 3D7, P. falciparum, screen at 2 μg/mL, replicate 2, read-out: Pf_72h_%Growth_Rep2) of 99.7%.

`CC1=CC2C(O)CCCC2C(C)(C(O)=C2C(=O)CNC2=O)C1CCC(C)C(O)/C(C)=C/CC(O)/C=C/C(C)C(O)/C=C/CC(O)/C=C/CC(O)CC1CCCN1C(=N)N` (stereo not drawn) [TPU-0037C] showed a Tg_72h_%Growth_Rep1 [1, 10] of 129.91%, a Tg_72h_%Growth_Rep2 [1, 11] of 76.44% and a Pf_120h_%Growth_Rep1 [2, 12] of 83.44%. It also gave a Pf_120h_%Growth_Rep2 [2, 13] of 78.76%, a Pf_72h_%Growth_Rep1 [3, 14] of 76.69% and a Pf_72h_%Growth_Rep2 [3, 15] of 109.21%.

`C[C@@]12CCC[C@@]34CCC[C@@H](C=C[C@H]1CC3)N42` [Porantherine] showed a Tg_72h_%Growth_Rep1 ([1]; T. gondii, parasite screen 2 μg/mL, % growth, replicate 1) of 90.85%, a Tg_72h_%Growth_Rep2 ([1]; T. gondii, parasite screen 2 μg/mL, % growth, replicate 2) of 74.43% and a Pf_120h_%Growth_Rep1 ([2]; P. falciparum, 120 h, parasite screen 2 μg/mL, % growth, replicate 1) of 101.33%. It also gave a Pf_120h_%Growth_Rep2 ([2]; P. falciparum, 120 h, parasite screen 2 μg/mL, % growth, replicate 2) of 98.35%, a Pf_72h_%Growth_Rep1 ([3]; P. falciparum, parasite screen 2 μg/mL, % growth, replicate 1) of 85.43% and a Pf_72h_%Growth_Rep2 ([3]; P. falciparum, parasite screen 2 μg/mL, % growth, replicate 2) of 115.67%.

Work on `CCC(=O)CCCCC[C@@H]1NC(=O)[C@H]2CCCCN2C(=O)[C@H]([C@@H](C)CC)NC(=O)[C@H](Cc2cn(OC)c3ccccc23)NC1=O` [Apicidin] yielded a percent parasite growth at 2 µg/mL [1, 4] of 6.14%, a percent parasite growth at 2 µg/mL [1, 5] of 0.42% and an activity at 2 µg/mL [2, 6] of 2.31%. It also gave an activity at 2 µg/mL [2, 7] of -15.8%, an activity at 2 µg/mL [3, 8] of 1.42% and an activity at 2 µg/mL [3, 9] of 5.38%.
